Measurements taken from patent US20250263370A1 (Tay Therapeutics Limited, priority 2022, published 2025).

What was measured:
[1] = target: BRD4 BD1 (Homo sapiens (Human), UniProt O60885); test: NanoBRET bromodomain assay, NanoLuc-BRD4-BD1 fusion in HEK293 cells; format: cell-based; conditions: top concentration 10 μM
[2] = target: BRD4 BD2 (Homo sapiens (Human), UniProt O60885); test: NanoBRET bromodomain assay, NanoLuc-BRD4-BD2 fusion in HEK293 cells; conditions: for IC50: BRD4 BD2 (IC50), NanoBRET, HEK293 cells, top concentration 10 μM; for Fold selectivity: IC50 for BRD4 BD1 divided by IC50 for BRD4 BD2, qualitative if an IC50 is at the upper limit;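 as to all read-outs here: tracer displacement BRET read in transfected cells after 2 h compound exposure at 37 °C, signal in milliBRET units corrected against no-tracer background wells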

Structure (SMILES) | IC50 [1] [µM] | IC50 [2] [µM] | Fold selectivity [2] | remaining activity at 10 µM ([2]; HEK293, read-out: BRD4 BD2 % Activity Remaining @ 10 uM, 10 uM, (2) = second batch) [%]
CCNC(=O)c1cc(OC(C)c2ccc(C(F)(F)F)cc2)c(C(=O)NC)[nH]1 (racemic) [Example 1, N^5-ethyl-N^2-methyl-3-(1-(4-(trifluoromethyl)phenyl)ethoxy)-1H-pyrrole-2,5-dicarboxamide] | ≥ 10 | 0.2 to 1 | X (Fold >2 and ≤50) | 
CCNC(=O)c1cc(OC(C)c2ccccc2C(F)(F)F)c(C(=O)NC)[nH]1 (racemic) [Example 2, N^5-ethyl-N^2-methyl-3-(1-(2-(trifluoromethyl)phenyl)ethoxy)-1H-pyrrole-2,5-dicarboxamide] | ≥ 10 | 0.05 to 0.2 | XX (Fold >50 and ≤200) | 
CCNC(=O)c1cc(OC(C)c2cccc(Cl)c2)c(C(=O)NC)[nH]1 (racemic) [Example 3, 3-(1-(3-chlorophenyl)ethoxy)-N^5-ethyl-N^2-methyl-1H-pyrrole-2,5-dicarboxamide] | ≥ 10 | 0.05 to 0.2 | XX (Fold >50 and ≤200) | 
CCNC(=O)c1cc(OC(C)c2ccccc2C)c(C(=O)NC)[nH]1 (racemic) [Example 5, N^5-ethyl-N^2-methyl-3-(1-(o-tolyl)ethoxy)-1H-pyrrole-2,5-dicarboxamide] | ≥ 10 | 0.05 to 0.2 | XX (Fold >50 and ≤200) | 
CCNC(=O)c1cc(OC(C)c2ccccc2Cl)c(C(=O)NC)[nH]1 (racemic) [Example 6, 3-(1-(2-chlorophenyl)ethoxy)-N^5-ethyl-N^2-methyl-1H-pyrrole-2,5-dicarboxamide] | ≥ 10 | 0.2 to 1 | X (Fold >2 and ≤50) | 
CCNC(=O)c1cc(OC(C)c2cccc(OC)c2)c(C(=O)NC)[nH]1 (racemic) [Example 7, N^5-ethyl-3-(1-(3-methoxyphenyl)ethoxy)-N^2-methyl-1H-pyrrole-2,5-dicarboxamide] | ≥ 10 | 0.2 to 1 | X (Fold >2 and ≤50) | 
CCNC(=O)c1cc(OC(CCOC)c2ccccc2)c(C(=O)NC)[nH]1 (racemic) [Example 8, N^5-ethyl-3-(3-methoxy-1-phenylpropoxy)-N^2-methyl-1H-pyrrole-2,5-dicarboxamide] | ≥ 10 | > 10 | — (Fold ≥0 and ≤2) | 
CCNC(=O)c1cc(OC(C)c2ccc(C#N)cc2)c(C(=O)NC)[nH]1 (racemic) [Example 9, 3-(1-(4-cyanophenyl)ethoxy)-N^5-ethyl-N^2-methyl-1H-pyrrole-2,5-dicarboxamide] | ≥ 10 | > 10 | — (Fold ≥0 and ≤2) | 
CCNC(=O)c1cc(OC(COC)c2ccccc2)c(C(=O)NC)[nH]1 (racemic) [Example 10, N^5-ethyl-3-(2-methoxy-1-phenylethoxy)-N^2-methyl-1H-pyrrole-2,5-dicarboxamide] | ≥ 10 | > 10 | — (Fold ≥0 and ≤2) | 
CCNC(=O)c1cc(OC(C)c2ccccc2C#N)c(C(=O)NC)[nH]1 (racemic) [Example 11, 3-(1-(2-cyanophenyl)ethoxy)-N^5-ethyl-N^2-methyl-1H-pyrrole-2,5-dicarboxamide] | ≥ 10 | > 10 | — (Fold ≥0 and ≤2) | 
CCNC(=O)c1cc(OC(C)c2ccc(F)c(F)c2)c(C(=O)NC)[nH]1 (racemic) [Example 12, 3-(1-(3,4-difluorophenyl)ethoxy)-N5-ethyl-N2-methyl-1H-pyrrole-2,5-dicarboxamide] | ≥ 10 | 0.2 to 1 | X (Fold >2 and ≤50) | 
CCNC(=O)c1cc(OC(C)c2cccc(F)c2F)c(C(=O)NC)[nH]1 (racemic) [Example 13, 3-(1-(2,3-difluorophenyl)ethoxy)-N^5-ethyl-N^2-methyl-1H-pyrrole-2,5-dicarboxamide] | ≥ 10 | 0.2 to 1 | X (Fold >2 and ≤50) | 
CCNC(=O)c1cc(OC(C)c2ccc(F)cc2F)c(C(=O)NC)[nH]1 (racemic) [Example 14, 3-(1-(2,4-difluorophenyl)ethoxy)-N^5-ethyl-N^2-methyl-1H-pyrrole-2,5-dicarboxamide] | ≥ 10 | 0.2 to 1 | X (Fold >2 and ≤50) | 
CCNC(=O)c1cc(OC(C)c2ccc3c(c2)COC3)c(C(=O)NC)[nH]1 (racemic) [Example 15, 3-(1-(1,3-dihydroisobenzofuran-5-yl)ethoxy)-M-ethyl-N^2-methyl-1H-pyrrole-2,5-dicarboxamide] | ≥ 10 | 0.2 to 1 | X (Fold >2 and ≤50) | 
CCCC(Oc1cc(C(=O)NCC)[nH]c1C(=O)NC)c1ccccc1 (racemic) [Example 16, N^5-ethyl-N^2-methyl-3-(1-phenylbutoxy)-1H-pyrrole-2,5-dicarboxamide] | ≥ 10 | 0.2 to 1 | X (Fold >2 and ≤50) | 
CCNC(=O)c1cc(OC(C)c2cccc(C)c2)c(C(=O)NC)[nH]1 (racemic) [Example 17, N^5-ethyl-N^2-methyl-3-(1-(m-tolyl)ethoxy)-1H-pyrrole-2,5-dicarboxamide] | ≥ 10 | 0.05 to 0.2 | XX (Fold >50 and ≤200) | 
CCNC(=O)c1cc(OC(c2ccccc2)C2CC2)c(C(=O)NC)[nH]1 (racemic) [Example 63, 3-(cyclopropyl(phenyl)methoxy)-N^5-ethyl-N^2-methyl-1H-pyrrole-2,5-dicarboxamide] | ≥ 10 | > 10 | — (Fold ≥0 and ≤2) | 
CCNC(=O)c1cc(OC(CO)c2ccccc2)c(C(=O)NC)[nH]1 (racemic) [Example 73, N^5-ethyl-3-(2-hydroxy-1-phenylethoxy)-N^2-methyl-1H-pyrrole-2,5-dicarboxamide] | ≥ 10 | 1 to 10 | X (Fold >2 and ≤50) | 
CCNC(=O)c1cc(OC(c2ccccc2)C(C)C)c(C(=O)NC)[nH]1 (racemic) [Example 77, N^5-ethyl-N^2-methyl-3-(2-methyl-1-phenylpropoxy)-1H-pyrrole-2,5-dicarboxamide] | ≥ 10 | > 10 | — (Fold ≥0 and ≤2) | 
CCNC(=O)c1cc(OC(C)c2ccccn2)c(C(=O)NC)[nH]1 (racemic) [Example 96, N^5-ethyl-N^2-methyl-3-(1-(pyridin-2-yl)ethoxy)-1H-pyrrole-2,5-dicarboxamide] | ≥ 10 | 0.2 to 1 | X (Fold >2 and ≤50) | 30
CCNC(=O)c1cc(OC(C)c2ccc(Cl)cc2)c(C(=O)NC)[nH]1 (racemic) [Example 122, 3-(1-(4-chlorophenyl)ethoxy)-N^5-ethyl-N^2-methyl-1H-pyrrole-2,5-dicarboxamide] | ≥ 10 | 0.05 to 0.2 | XX (Fold >50 and ≤200) | 
CCNC(=O)c1cc(OC(C)c2cccc(F)c2)c(C(=O)NC)[nH]1 (racemic) [Example 123, N^5-ethyl-3-(1-(3-fluorophenyl)ethoxy)-N^2-methyl-1H-pyrrole-2,5-dicarboxamide] | ≥ 10 | 0.2 to 1 | X (Fold >2 and ≤50) | 
CCNC(=O)c1cc(OC(C)c2ccccc2F)c(C(=O)NC)[nH]1 (racemic) [Example 124, N^5-ethyl-3-(1-(2-fluorophenyl)ethoxy)-N^2-methyl-1H-pyrrole-2,5-dicarboxamide] | ≥ 10 | 0.05 to 0.2 | XX (Fold >50 and ≤200) | 
CCNC(=O)c1cc(OC(C)c2cccc(C(F)(F)F)c2)c(C(=O)NC)[nH]1 (racemic) [Example 125, N^5-ethyl-N^2-methyl-3-(1-(3-(trifluoromethyl)phenyl)ethoxy)-1H-pyrrole-2,5-dicarboxamide] | ≥ 10 | 0.2 to 1 | X (Fold >2 and ≤50) | 
CCNC(=O)c1cc(OC(CC)c2ccccc2)c(C(=O)NC)[nH]1 (racemic) [Example 126, N^5-ethyl-N^2-methyl-3-(1-phenylpropoxy)-1H-pyrrole-2,5-dicarboxamide] | ≥ 10 | 0.2 to 1 | X (Fold >2 and ≤50) | 
CCNC(=O)c1cc(OC(C)c2ccc(F)cc2)c(C(=O)NC)[nH]1 (racemic) [Example 127, N^5-ethyl-3-(1-(4-fluorophenyl)ethoxy)-N^2-methyl-1H-pyrrole-2,5-dicarboxamide] | ≥ 10 | 0.05 to 0.2 | XX (Fold >50 and ≤200) | 
CCNC(=O)c1cc(OC(C)c2ccc(Cl)cc2)c(C(=O)NC)[nH]1 (single isomer, unassigned) [Example 19, 3-(1-(4-chlorophenyl)ethoxy)-N^5-ethyl-N^2-methyl-1H-pyrrole-2,5-dicarboxamide] | ≥ 10 | > 10 | — (Fold ≥0 and ≤2) | 
CNC(=O)c1[nH]c(C(=O)NC2CCC2)cc1OC(C)c1ccc(Cl)cc1 (single isomer, unassigned) [Example 28, 3-(1-(4-chlorophenyl)ethoxy)-N^5-cyclobutyl-N^2-methyl-1H-pyrrole-2,5-dicarboxamide] |  |  | — (Fold ≥0 and ≤2) | 
CCNC(=O)c1cc(OC(C)c2c(C)cccc2C)c(C(=O)NC)[nH]1 (single isomer, unassigned) [Example 64, 3-(1-(2,6-dimethylphenyl)ethoxy)-N^5-ethyl-N^2-methyl-1H-pyrrole-2,5-dicarboxamide] |  |  | — (Fold ≥0 and ≤2) | 
CNC(=O)c1[nH]c(C(=O)N[C@H]2CC[C@H](O)CC2)cc1O[C@@H](C)c1ccnnc1 (single isomer, unassigned) [Example 92, N^5-(4-hydroxycyclohexyl)-N^2-methyl-3-(1-(pyridazin-4-yl)ethoxy)-1H-pyrrole-2,5-dicarboxamide] |  |  | — (Fold ≥0 and ≤2) | 
